In patent US20060009358A1, “Synergistically acting herbicidal mixtures” (priority 2002, published 2006):

Tests used:
Test in all cases: Herbicidal action, post-emergence treatment, greenhouse (damage 0-100% vs untreated control)
Format in all cases: in vivo
Galium aparine = system: Galium aparine
Excerpt: (§1) The mixtures according to the invention were applied pre- or post-emergence (foliar treatment). The herbicidal compounds of component B and, if desired, of component C were applied in the formulation in which they are present as commercially available product.
(§2) The herbicidally active compounds of components A), B) and, if desired, C) were applied in succession or jointly, in the latter case in some cases as a tank mix and in some cases as a ready-mix, in the form of emulsions, aqueous solutions or-suspensions, the vehicle being water (300-400 l/ha). In the case of the field trials, application was effected with the aid of a mobile plot sprayer.
(§3) The test period extended over 3 to 8 weeks, and the stands were also observed at later points in time.
(§4) Damage by the herbicidal compositions was evaluated with reference to a scale of 0% to 100% in comparison with untreated control plots. 0 means no damage and 100 means complete destruction of the plants.
(§5) In these examples, the value E at which only an additive effect of the individual active ingredients is to be expected was calculated by the method of S. R. Colby (Calculating synergistic and antagonistic responses of herbicide combinations, Weeds 15, 20 pp (1967)).
(§6) This was done using the formula [formula] where • X=Percentage of the herbicidal action of component X) at an application rate of x; • Y=Percentage of the herbicidal action of component Y) at an application rate of y; • E=expected herbicidal action of component X)+Y) at rates of application x+y (in %).
(§7) If the value observed exceeds the value E calculated in accordance with Colby's formula, then synergism is present.

Setaria faberi = system: Setaria faberi
Excerpt: as §1, §2, §3, §4, §5, §6, §7

Abutilon theophrasti = system: Abutilon theophrasti
Excerpt: as §1, §2, §3, §4, §5, §6, §7

Polygonum persicaria = system: Polygonum persicaria
Excerpt: as §1, §2, §3, §4, §5, §6, §7

Pharbitis purpurea = conditions: Table 11, application rate 31.2 g/ha ai
Excerpt: as §1, §2, §3, §4, §5, §6, §7

Brachiaria plantaginea = conditions: Table 8, application rate 125 g/ha ai
Excerpt: as §1, §2, §3, §4, §5, §6, §7

Echinochloa crus-galli = conditions: Table 5, application rate 3.91 g/ha ai
Excerpt: as §1, §2, §3, §4, §5, §6, §7

[1] = Table 4, application rate 7.81 g/ha ai
[2] = Table 3, application rate 3.91 g/ha ai

CCNc1nc(Cl)nc(NC(C)C)n1 [atrazine]
Galium aparine Damage (Galium aparine; Table 9, application rate 125 g/ha ai): 60%
Setaria faberi Damage (Setaria faberi; Table 11, application rate 31.2 g/ha ai): 30%
Abutilon theophrasti Damage (Abutilon theophrasti; Table 8, application rate 125 g/ha ai): 30%
Polygonum persicaria Damage (Polygonum persicaria; Table 10, application rate 62.5 g/ha ai): 40%
Polygonum persicaria Damage (Polygonum persicaria; Table 12, application rate 31.2 g/ha ai): 30%
Pharbitis purpurea Damage (Pharbitis purpurea): 60%
Brachiaria plantaginea Damage (Brachiaria plantaginea): 25%

Cc1c(C(=O)c2cnn(C)c2O)ccc(S(C)(=O)=O)c1C1=NOCC1 [Ia.29, 4-[2-methyl-3-(4,5-dihydroisoxazol-3-yl)-4-methylsulfonyl-benzoyl]-1-methyl-5-hydroxy-1H-pyrazole]
Galium aparine Damage (Galium aparine; [1]): 70%
Abutilon theophrasti Damage (Abutilon theophrasti; [2]): 60%

O=C(O)c1nc(Cl)ccc1Cl [IIb, clopyralid]
Setaria faberi Damage (Setaria faberi; Table 6, application rate 250 g/ha ai): 20%
Setaria faberi Damage (Setaria faberi; Table 7, application rate 125 g/ha ai): 20%

Cc1ccn2nc(S(=O)(=O)Nc3c(F)cccc3F)nc2n1 [IIa, flumetsulam]
Galium aparine Damage (Galium aparine; [1]): 80%
Abutilon theophrasti Damage (Abutilon theophrasti; [2]): 60%
Echinochloa crus-galli Damage (Echinochloa crus-galli): 25%
